Data published in patent US12227488B2, “Small molecule degraders of Helios and methods of use” (DANA-FARBER CANCER INSTITUTE, INC., priority 2018, dated 2025).
“Also recorded” adds a separate entry of the source.

Experiments:
[1] = tested on: IKZF2; assay: Cellular degradation assay, eGFP-IKZF2Δ fusion with mCherry reporter in Flp-In 293 cells; format: cell-based; details: for IKZF2 GFP/RFP Relative Abundance: 5 h incubation, n=1
How it was run: (§1)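 Flp-In 293 cells stably expressing eGFP-tagged degron fusions with P2A-mCherry reporter were treated with compound titrations (0.5% DMSO) for 5 hours. Imaging quantified GFP-positive/mCherry-positive cell fraction per well; DC50 at 5 h from nonlinear variable-slope fit.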

[2] = biological target: T1, IKZF1 (Homo sapiens, UniProt Q13422); assay: Cellular degradation assay, eGFP-IKZF1Δ fusion with mCherry reporter in Flp-In 293 cells; format: cell-based; details: for IKZF1 GFP/RFP Relative Abundance: 5 h incubation, n=1
T1 construct: expressed in transfected cells; host or cells: Flp-In 293
How it was run: as §1

[3] = biological target: T2, SALL4 ZNF1-2 (Homo sapiens, UniProt Q96SW2+Q9UJQ4); assay: Cellular degradation assay, eGFP-SALL4 ZnF1-2 fusion with mCherry reporter in Flp-In 293 cells; format: cell-based; details: 5 h incubation, n=1
T2 construct: IKZF1Δ, IKZF2Δ, GSPT1 and SALL4 ZnF1-2 were subcloned; expressed in transfected cells; host or cells: Flp-In 293
Procedure: IKZF1Δ, IKZF2Δ, GSPT1 and SALL4 ZnF1-2 were subcloned into mammalian pcDNA5/FRT Vector (Ampicillin and Hygromycin B resistant) modified to contain MCS-eGFP-P2A-mCherry. Stable cell lines expressing eGFP-protein fusion and mCherry reporter were generated using Flp-In™ 293 system. Plasmid (0.3 μg) and pOG44 (4.7 μg) DNA were preincubated in 100 μL of Opti-MEM® I (Gibco®, Life Technologies™) media containing 0.05 mg/mL Lipofectamine® 2000 (Invitrogen™) for 20 min and added to Flp-In™ 293 cells containing 1.9 ml of DMEM media (Gibco®, Life Technologies™) per well in a 6-well plate format (Falcon, 353046). Cells were propagated after 48 h and transferred into a 10 cm^2 plate (Corning, 430165) in DMEM media containing 50 μg/mL of Hygromycin B (REF 10687010, Invitrogen™) as a selection marker. Following 2-3 passage cycle, FACS (FACSAria™ II, BD) was used to enrich for cells expressing eGFP and mCherry. Cells stably expressing the IKZF1Δ, IKZF2Δ, GSPT1 or SALL4 Znf1-2 GFP fusions with mCherry reporter were seeded at 30-50% confluency in 384-well plates with 50 μL FluoroBrite™ DMEM media (Thermo Fisher Scientific, A18967) containing 10% FBS per well a day before compound treatment. Compound titrations were dispensed using a D300e Digital Dispenser (HP), normalized to 0.5% DMSO, and incubated with cells for 5 hours. The assay plate was imaged immediately using an Acumen® High Content Imager (TTP Labtech) with 488 nm and 561 nm lasers in […] grid per well format.
The resulting images were analyzed using CellProfiler™. A series of image analysis steps (‘image analysis pipeline’) was constructed. First, the red and green channels were aligned and cropped to target the middle of each well (to avoid analysis of heavily clumped cells at the edges), and a background illumination function was calculated for both red and green channels of each well individually and subtracted to correct for illumination variations across the 384-well plate from various sources of error. An additional step was then applied to the green channel to suppress the analysis of large auto fluorescent artifacts and enhance the analysis of cell specific fluorescence by way of selecting for objects under a given size, 30 A.U., and with a given shape, speckles. mCherry-positive cells were then identified in the red channel filtering for objects between 8-60 pixels in diameter and using intensity to distinguish between clumped objects. The green channel was then segmented into GFP positive and negative areas and objects were labeled as GFP positive if at least 40% of it overlapped with a GFP positive area. The fraction of GFP-positive cells/mCherry-positive cells in each well was then calculated, and the green and red images were rescaled for visualization.

[4] = biological target: T3, CRBN and Helios (IKZF2) (Homo sapiens, UniProt Q96SW2+Q9UKS7); assay: TR-FRET dimerization assay (CRBN-IKZF2 ternary complex formation); format: binding; details: for TR-FRET-IKZF2 (Normalized to CC-885): n=1
T3 construct: His (N); Strep (N)
How it was run: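 BODIPY-labeled DDB1ΔB-CRBN and in vitro biotinylated IKZF2 were treated with increasing compound concentrations plus tracer Terbium-Streptavidin and incubated 15 min at rt. Recruitment was quantified as the 520/490 nm TR-FRET ratio; values are single measurements (n=1), each averaged from at least three technical replicates.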

[5] = biological target: GSPT1 (Homo sapiens, UniProt P15170+Q96SW2); assay: Cellular degradation assay, eGFP-GSPT1 fusion with mCherry reporter in Flp-In 293 cells; format: cell-based; parameters: expressed in transfected cells; host or cells: Flp-In 293; details: for GSPT1 GFP/RFP Relative Abundance: 5 h incubation, n=1
How it was run: as §1

[6] = compound concentration 2.00E−05
[7] = compound concentration 2.00E−06
[8] = compound concentration 2.00E−07
[9] = compound concentration 6.6667E−05
[10] = compound concentration 6.6667E−06
[11] = compound concentration 6.6667E−07 (667 nM)
[12] = half degradation at 5 h (DC50,5 h), triplicate, 11 point dose response

T2 sequence (Q9UJQ4 378-438 limits assumed): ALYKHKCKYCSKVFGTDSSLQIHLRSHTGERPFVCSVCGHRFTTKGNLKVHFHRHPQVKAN
T2 sequence (Q96SW2 whole entry, the tested form may be a part): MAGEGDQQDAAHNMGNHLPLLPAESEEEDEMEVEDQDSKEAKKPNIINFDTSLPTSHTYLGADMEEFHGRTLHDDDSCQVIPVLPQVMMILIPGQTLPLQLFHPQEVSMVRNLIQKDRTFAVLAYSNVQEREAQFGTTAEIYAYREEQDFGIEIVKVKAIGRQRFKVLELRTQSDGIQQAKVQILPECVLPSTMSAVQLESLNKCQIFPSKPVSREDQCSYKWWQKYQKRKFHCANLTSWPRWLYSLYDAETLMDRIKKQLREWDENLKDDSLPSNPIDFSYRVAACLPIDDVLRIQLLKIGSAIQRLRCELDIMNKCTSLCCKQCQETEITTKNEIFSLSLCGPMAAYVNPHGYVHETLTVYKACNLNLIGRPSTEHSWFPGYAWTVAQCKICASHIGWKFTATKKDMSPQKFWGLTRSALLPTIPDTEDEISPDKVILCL
T2 sequence (Q16531 whole entry partner, the tested form may be a part): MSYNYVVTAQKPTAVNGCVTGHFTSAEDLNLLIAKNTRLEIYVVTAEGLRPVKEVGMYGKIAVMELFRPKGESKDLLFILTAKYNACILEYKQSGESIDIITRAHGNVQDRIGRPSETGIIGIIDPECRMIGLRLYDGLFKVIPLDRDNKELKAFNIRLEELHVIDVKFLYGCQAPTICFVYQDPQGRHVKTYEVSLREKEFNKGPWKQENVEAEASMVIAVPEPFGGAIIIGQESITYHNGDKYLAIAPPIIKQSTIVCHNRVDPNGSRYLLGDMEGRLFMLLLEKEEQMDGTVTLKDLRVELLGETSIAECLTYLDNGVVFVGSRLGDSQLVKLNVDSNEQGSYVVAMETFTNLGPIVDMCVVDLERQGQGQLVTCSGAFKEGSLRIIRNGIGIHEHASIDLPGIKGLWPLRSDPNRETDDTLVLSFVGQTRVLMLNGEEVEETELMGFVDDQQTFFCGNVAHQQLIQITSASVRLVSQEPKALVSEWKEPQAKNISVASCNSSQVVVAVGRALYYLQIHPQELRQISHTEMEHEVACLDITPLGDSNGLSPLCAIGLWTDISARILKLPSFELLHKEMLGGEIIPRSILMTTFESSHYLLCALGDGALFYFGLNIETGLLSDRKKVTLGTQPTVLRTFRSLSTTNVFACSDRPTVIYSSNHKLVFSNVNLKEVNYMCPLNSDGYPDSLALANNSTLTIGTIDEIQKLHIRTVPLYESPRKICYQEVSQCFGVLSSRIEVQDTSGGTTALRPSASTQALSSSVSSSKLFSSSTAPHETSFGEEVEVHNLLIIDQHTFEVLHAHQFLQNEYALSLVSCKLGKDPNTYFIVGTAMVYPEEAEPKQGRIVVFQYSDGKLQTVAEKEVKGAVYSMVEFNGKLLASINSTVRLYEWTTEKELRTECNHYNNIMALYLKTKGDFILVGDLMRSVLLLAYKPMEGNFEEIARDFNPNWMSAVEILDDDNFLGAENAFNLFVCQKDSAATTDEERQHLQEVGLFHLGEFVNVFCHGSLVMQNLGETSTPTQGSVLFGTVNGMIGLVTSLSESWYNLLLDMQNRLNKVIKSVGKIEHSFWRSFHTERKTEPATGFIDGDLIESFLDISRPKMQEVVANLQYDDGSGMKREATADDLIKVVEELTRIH
GSPT1, sequence (P15170 whole entry, the tested form may be a part): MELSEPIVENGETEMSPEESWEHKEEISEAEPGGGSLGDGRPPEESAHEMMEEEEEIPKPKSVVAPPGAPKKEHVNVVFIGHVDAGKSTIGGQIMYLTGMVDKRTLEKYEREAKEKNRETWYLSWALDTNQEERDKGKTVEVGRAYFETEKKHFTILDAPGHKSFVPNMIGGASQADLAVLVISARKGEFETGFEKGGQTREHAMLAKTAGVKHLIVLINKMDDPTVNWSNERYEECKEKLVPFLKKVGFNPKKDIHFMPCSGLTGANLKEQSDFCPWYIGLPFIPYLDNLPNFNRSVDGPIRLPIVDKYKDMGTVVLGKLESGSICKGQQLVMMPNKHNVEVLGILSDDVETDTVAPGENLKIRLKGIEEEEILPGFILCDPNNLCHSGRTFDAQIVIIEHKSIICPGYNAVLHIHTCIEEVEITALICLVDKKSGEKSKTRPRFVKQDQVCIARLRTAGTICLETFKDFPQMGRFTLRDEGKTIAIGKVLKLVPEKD
GSPT1, sequence (Q96SW2 whole entry, the tested form may be a part): as the sequence (Q96SW2 whole entry, the tested form may be a part) above
GSPT1, sequence (Q16531 whole entry partner, the tested form may be a part): as the sequence (Q16531 whole entry partner, the tested form may be a part) above
T1 sequence (Q13422 83-213 isoform Q13422-7 limits assumed): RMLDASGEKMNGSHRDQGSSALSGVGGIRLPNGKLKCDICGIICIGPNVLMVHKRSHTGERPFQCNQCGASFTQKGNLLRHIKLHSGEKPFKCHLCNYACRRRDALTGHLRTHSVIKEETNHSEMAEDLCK
T1 sequence (Q96SW2 whole entry partner, the tested form may be a part): as the sequence (Q96SW2 whole entry, the tested form may be a part) above
T1 sequence (Q16531 2-1140 partner limits assumed): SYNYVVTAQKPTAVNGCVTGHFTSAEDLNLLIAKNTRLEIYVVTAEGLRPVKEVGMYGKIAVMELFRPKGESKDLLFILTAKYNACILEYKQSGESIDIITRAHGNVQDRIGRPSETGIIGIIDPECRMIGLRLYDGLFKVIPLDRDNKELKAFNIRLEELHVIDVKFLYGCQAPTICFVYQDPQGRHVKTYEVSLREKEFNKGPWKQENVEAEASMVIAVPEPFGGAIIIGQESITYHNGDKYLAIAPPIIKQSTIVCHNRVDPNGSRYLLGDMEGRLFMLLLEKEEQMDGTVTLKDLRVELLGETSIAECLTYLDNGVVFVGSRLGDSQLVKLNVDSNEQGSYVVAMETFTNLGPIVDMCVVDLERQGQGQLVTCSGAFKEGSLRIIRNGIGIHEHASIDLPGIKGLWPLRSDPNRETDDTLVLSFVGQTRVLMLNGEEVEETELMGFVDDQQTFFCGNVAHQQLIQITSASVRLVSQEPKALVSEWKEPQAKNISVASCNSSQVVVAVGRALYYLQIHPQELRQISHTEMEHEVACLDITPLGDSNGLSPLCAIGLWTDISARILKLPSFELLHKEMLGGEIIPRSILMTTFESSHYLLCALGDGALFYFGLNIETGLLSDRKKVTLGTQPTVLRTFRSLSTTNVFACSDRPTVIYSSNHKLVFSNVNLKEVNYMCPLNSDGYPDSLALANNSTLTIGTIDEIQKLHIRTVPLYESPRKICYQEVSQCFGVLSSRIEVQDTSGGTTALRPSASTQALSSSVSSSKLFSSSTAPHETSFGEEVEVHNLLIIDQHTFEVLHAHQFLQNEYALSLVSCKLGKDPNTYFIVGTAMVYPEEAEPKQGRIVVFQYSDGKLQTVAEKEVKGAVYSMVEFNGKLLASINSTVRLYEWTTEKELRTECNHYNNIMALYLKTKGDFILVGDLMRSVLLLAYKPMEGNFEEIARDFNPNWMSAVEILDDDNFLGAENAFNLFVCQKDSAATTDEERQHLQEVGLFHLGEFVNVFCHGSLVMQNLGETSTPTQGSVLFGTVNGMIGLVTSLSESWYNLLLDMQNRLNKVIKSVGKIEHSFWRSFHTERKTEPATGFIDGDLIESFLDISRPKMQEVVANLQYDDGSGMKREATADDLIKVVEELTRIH
T3 sequence (Q96SW2 whole entry): as the sequence (Q96SW2 whole entry, the tested form may be a part) above
T3 sequence (Q9UKS7 whole entry): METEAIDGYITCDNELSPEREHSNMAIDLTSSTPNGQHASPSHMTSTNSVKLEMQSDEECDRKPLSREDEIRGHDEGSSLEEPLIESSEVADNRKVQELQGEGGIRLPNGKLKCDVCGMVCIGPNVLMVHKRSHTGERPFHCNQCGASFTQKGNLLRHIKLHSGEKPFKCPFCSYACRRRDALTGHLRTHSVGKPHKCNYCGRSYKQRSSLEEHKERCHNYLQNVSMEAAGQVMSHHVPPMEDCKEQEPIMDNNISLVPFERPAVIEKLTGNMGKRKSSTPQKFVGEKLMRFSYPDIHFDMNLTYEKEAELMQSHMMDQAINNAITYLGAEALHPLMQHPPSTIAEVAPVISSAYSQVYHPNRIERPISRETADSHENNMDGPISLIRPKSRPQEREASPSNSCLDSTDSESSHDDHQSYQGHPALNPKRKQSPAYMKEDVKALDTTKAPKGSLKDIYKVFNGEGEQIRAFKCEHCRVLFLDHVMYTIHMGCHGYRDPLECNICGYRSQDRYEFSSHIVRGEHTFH

SMILES | IKZF2 GFP/RFP Relative Abundance [1, 6] | IKZF2 GFP/RFP Relative Abundance [1, 7] | IKZF2 GFP/RFP Relative Abundance [1, 8] | IKZF1 GFP/RFP Relative Abundance [2, 6] | IKZF1 GFP/RFP Relative Abundance [2, 7] | IKZF1 GFP/RFP Relative Abundance [2, 8] | SALL4 ZNF1-2 GFP/RFP Relative Abundance [3, 6] | SALL4 ZNF1-2 GFP/RFP Relative Abundance [3, 7] | SALL4 ZNF1-2 GFP/RFP Relative Abundance [3, 8] | TR-FRET-IKZF2 (Normalized to CC-885) [4, 9] | TR-FRET-IKZF2 (Normalized to CC-885) [4, 10] | TR-FRET-IKZF2 (Normalized to CC-885) [4, 11] | GSPT1 GFP/RFP Relative Abundance [5, 6] | GSPT1 GFP/RFP Relative Abundance [5, 7] | GSPT1 GFP/RFP Relative Abundance [5, 8] | IKZF2 cellular degradation, in words ([1]; Table 1 summary) | DC50 [1, 12] [nM] | DC50 [2, 12] [nM] | TR-FRET signal (520/490 ratio), CRBN-Helios dimerization, in words ([4]; FIG. 1B, 2A, 5) | DC50 [5, 12] [nM]
Cc1ccc(NC(=O)Nc2cccc(NC3=CC(=O)N(C4CCC(=O)NC4=O)C3=O)c2)cc1Cl (centres unmarked) [Compound 43, 1-(3-chloro-4-methylphenyl)-3-(3-((1-(2,6-dioxopiperidin-3-yl)-2,5-dioxo-2,5-dihydro-1H-pyrrol-3-yl)amino)phenyl)urea] | 1.054 | 1.007 | 0.980 | 0.996 | 0.240 | 0.301 | 1.072 | 0.897 | 0.888 | 0.443 | 0.353 | 0.278 | 0.083 | 0.072 | 0.087 |  |  |  |  | 
Cc1ccc(NC(=O)NCc2ccc(NC3=CC(=O)N(C4CCC(=O)NC4=O)C3=O)cc2)cc1Cl (centres unmarked) [Compound 46, 1-(3-chloro-4-methylphenyl)-3-(4-((1-(2,6-dioxopiperidin-3-yl)-2,5-dioxo-2,5-dihydro-1H-pyrrol-3-yl)amino)benzyl)urea] | 0.242 | 0.361 | 0.510 | 0.045 | 0.087 | 0.112 | 0.950 | 0.906 | 0.854 | 0.787 | 0.828 | 0.701 | 0.048 | 0.089 | 0.076 |  |  |  |  | 
O=C(O)CCCCNC1=CC(=O)N(C2CCC(=O)NC2=O)C1=O (centres unmarked) [Compound 22, 5-((1-(2,6-dioxopiperidin-3-yl)-2,5-dioxo-2,5-dihydro-1H-pyrrol-3-yl)amino)pentanoic acid] | 1.001 | 0.982 | 0.935 | 0.984 | 1.028 | 0.939 | 0.953 | 0.962 | 1.044 | 0.055 | 0.032 | 0.018 | 1.058 | 0.883 | 0.745 |  |  |  |  | 
O=C(O)CCCNC1=CC(=O)N(C2CCC(=O)NC2=O)C1=O (centres unmarked) [Compound 21, 4-((1-(2,6-dioxopiperidin-3-yl)-2,5-dioxo-2,5-dihydro-1H-pyrrol-3-yl)amino)butanoic acid] | 0.996 | 0.951 | 0.946 | 0.842 | 0.975 | 0.998 | 0.937 | 0.921 | 0.957 | 0.047 | 0.019 | 0.012 | 0.693 | 0.938 | 0.909 |  |  |  |  | 
Cc1ccc(NC(=O)NCc2ccc3c(c2)CN(C2CCC(=O)NC2=O)C3=O)cc1Cl (centres unmarked) [CC-885, reference compound] | 0.277 | 0.281 | 0.289 | 0.133 | 0.071 | 0.077 | 1.000 | 0.876 | 0.852 | 1.065 | 0.982 | 0.953 | 0.240 | 0.041 | 0.012 | degrade the IKZF2 in cellular assay | 80.7 | 0.56 | some activity; also recorded: able to recruit IKZF2 to CRBN | 0.084
COC(=O)CCNC1=CC(=O)N(C2CCC(=O)NC2=O)C1=O (centres unmarked) [Compound 14, Methyl 3-((1-(2,6-dioxopiperidin-3-yl)-2,5-dioxo-2,5-dihydro-1H-pyrrol-3-yl)amino)propanoate] | 1.022 | 0.982 | 1.040 | 1.033 | 1.031 | 1.043 | 0.955 | 0.944 | 0.983 | 0.046 | 0.040 | 0.022 | 1.058 | 1.018 | 0.915 |  |  |  |  | 
CCOC(=O)CNC1=CC(=O)N(C2CCC(=O)NC2=O)C1=O (centres unmarked) [Compound 16, Ethyl (1-(2,6-dioxopiperidin-3-yl)-2,5-dioxo-2,5-dihydro-1H-pyrrol-3-yl)glycinate] | 0.987 | 1.015 | 1.006 | 1.070 | 1.011 | 1.053 | 1.001 | 1.007 | 1.013 | 0.032 | 0.028 | 0.018 | 0.978 | 0.876 | 1.006 |  |  |  |  | 
O=C1CCC(N2C(=O)C=C(Nc3ccccc3)C2=O)C(=O)N1 (centres unmarked) [Compound 2, 3-(2,5-dioxo-3-(phenylamino)-2,5-dihydro-1H-pyrrol-1-yl)piperidine-2,6-dione] | 0.878 | 0.920 | 0.864 | 0.143 | 0.143 | 0.147 | 0.724 | 0.762 | 0.774 | 0.386 | 0.306 | 0.286 | 0.763 | 0.903 | 0.930 |  |  |  |  | 
